Results on 19 compounds are retold here after patent US20130172384A1, “FATTY ACID SYNTHASE INHIBITORS” (GlaxoSmithKline Intellectual Property Development Limited, priority 2010, published 2013).

pIC50: −log10 of the molar value.

This assay has as its target FAS (Homo sapiens, UniProt P49327). Briefly: FAS assay (Assay #1 residual NADPH detection or Assay #2 CoA detection with CPM dye). The format is biochemical. The note with it: inhibition of FAS; measured by one of two assays; one experiment or average of multiple experiments. The method, then: FAS activity was measured through one of the two following assays.
Inhibition of FAS activity can be measured based on the detection of residual NADPH substrate after the FAS assay is quenched. This assay is run as a 10 μL endpoint assay in 384-well format, where the reaction contains 20 μM malonyl-CoA, 2 μM acetyl-CoA, 30 μM NADPH and 40 nM FAS in 50 mM sodium phosphate, pH 7.0. The assay is run by sequentially dispensing 5 μl of a malonyl-CoA solution, then enzyme solution (containing the acetyl-CoA, and NADPH) into a black, low volume assay plate (Greiner 784076) pre-dispensed with 100 nL compound solutions in DMSO. The reaction is incubated at ambient temperature for 60 minutes, then quenched with 5 μL of a developing solution composed of 90 μM resazurin, 0.3 IU/ml diaphorase in 50 mM sodium phosphate, pH 7.0. The developed reaction is read on a Molecular Devices Analyst or Acquest (or equivalent) plate reader using a 530 nm excitation wavelength filter, a 580 nm emission filter, and 561 nm dichroic filter. The test compounds are prepared in neat DMSO at a concentration of 10 mM. For inhibition curves, compounds are diluted using a three fold serial dilution and tested at 11 concentrations (e.g. 25 μM-0.42 nM). Curves are analysed using ActivityBase and XLfit, and results are expressed as pIC50 values.
Inhibition of FAS can also be quantified based on the detection of the CoA products with a thio-reactive coumarin dye. This assay is run as a 10 μL endpoint assay in 384-well format, where the reaction contains 20 μM malonyl-CoA, 20 μM acetyl-CoA, 40 μM NADPH and 2 nM FAS in 50 mM sodium phosphate, pH 7.0, and 0.04% Tween-20. The assay is run by adding 5 μL enzyme solution to a black, low volume assay plate (Greiner 784076) pre-dispensed with 100 nl compound solutions in DMSO. After 30 minutes, 5 μL substrate is added, and the reaction incubated at ambient temperature for an additional 60 minutes. The reaction is then quenched with 10 μL of 6M guanidine-HCl containing 50 μM CPM (7-diethylamino-3-(4′-maleimidylphenyl)-4-methylcoumarin (CPM; thio-reactive dye), and incubated for 30 minutes. The plate is read on an Envision (PerkinElmer) or equivalent plate reader using a 380 nm excitation wavelength filter, and a 486 nm emission filter. Data fitting and compound preparations are done as described above.

FAS, sequence (P49327 whole entry): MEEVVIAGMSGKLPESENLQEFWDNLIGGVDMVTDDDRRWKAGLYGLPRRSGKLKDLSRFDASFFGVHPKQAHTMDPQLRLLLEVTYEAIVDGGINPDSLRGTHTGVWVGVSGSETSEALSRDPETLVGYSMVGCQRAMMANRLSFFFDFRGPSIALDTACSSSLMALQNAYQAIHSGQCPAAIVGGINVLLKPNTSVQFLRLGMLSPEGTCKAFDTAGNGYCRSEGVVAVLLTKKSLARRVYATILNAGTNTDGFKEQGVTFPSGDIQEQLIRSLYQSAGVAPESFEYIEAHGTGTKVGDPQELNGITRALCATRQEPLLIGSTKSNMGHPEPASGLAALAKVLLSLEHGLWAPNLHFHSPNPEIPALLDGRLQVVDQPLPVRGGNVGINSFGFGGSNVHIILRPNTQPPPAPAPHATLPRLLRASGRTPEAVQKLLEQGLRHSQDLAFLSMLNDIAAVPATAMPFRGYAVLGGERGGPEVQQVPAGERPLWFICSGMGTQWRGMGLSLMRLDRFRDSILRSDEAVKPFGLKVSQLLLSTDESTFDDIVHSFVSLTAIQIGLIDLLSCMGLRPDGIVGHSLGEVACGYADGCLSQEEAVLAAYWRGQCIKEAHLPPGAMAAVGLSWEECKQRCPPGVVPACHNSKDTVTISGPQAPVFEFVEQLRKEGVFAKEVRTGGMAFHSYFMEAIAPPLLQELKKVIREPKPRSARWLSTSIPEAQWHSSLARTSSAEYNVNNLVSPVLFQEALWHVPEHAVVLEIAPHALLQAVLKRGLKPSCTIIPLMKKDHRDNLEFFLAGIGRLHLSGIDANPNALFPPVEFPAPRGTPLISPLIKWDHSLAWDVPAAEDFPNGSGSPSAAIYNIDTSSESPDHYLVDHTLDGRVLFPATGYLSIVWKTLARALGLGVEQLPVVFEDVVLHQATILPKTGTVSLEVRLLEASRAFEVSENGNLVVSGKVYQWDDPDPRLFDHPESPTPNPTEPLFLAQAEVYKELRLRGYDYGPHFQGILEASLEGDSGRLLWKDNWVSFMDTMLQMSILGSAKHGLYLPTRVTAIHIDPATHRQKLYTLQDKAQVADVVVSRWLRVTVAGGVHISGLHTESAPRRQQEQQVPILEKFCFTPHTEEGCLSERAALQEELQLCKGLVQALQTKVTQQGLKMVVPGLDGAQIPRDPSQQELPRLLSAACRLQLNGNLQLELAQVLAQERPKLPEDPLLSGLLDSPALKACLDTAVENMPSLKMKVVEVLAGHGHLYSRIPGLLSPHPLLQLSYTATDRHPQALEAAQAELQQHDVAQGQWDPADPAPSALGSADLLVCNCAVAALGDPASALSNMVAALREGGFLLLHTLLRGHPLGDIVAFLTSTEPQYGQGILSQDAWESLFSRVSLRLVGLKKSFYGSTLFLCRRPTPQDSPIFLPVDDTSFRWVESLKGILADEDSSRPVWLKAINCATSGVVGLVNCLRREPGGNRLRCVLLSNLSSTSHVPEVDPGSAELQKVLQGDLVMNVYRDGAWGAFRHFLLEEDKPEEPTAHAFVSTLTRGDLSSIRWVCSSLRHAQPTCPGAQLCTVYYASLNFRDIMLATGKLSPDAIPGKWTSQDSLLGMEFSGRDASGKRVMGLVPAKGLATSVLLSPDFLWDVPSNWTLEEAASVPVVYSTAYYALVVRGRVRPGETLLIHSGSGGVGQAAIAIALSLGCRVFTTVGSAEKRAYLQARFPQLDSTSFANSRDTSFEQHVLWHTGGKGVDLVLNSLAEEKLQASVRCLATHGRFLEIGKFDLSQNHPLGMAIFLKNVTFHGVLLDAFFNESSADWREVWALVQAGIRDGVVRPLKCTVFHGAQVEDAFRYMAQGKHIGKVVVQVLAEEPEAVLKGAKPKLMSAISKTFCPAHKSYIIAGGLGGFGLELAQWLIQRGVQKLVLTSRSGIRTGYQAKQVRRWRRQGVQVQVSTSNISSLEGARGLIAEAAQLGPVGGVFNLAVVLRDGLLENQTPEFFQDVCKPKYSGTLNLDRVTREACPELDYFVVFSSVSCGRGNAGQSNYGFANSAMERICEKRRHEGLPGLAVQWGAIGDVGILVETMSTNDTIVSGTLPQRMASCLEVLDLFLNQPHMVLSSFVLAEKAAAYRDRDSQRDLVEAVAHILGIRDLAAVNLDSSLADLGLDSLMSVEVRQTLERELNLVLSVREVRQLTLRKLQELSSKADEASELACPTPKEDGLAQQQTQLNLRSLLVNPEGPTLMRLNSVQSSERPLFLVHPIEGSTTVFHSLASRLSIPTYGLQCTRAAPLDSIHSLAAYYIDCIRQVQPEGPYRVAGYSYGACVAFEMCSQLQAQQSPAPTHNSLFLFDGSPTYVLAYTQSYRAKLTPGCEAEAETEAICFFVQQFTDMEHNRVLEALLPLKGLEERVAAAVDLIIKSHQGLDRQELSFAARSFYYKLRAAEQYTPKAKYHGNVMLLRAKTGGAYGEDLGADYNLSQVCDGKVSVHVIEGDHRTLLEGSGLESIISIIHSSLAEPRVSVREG

Compound `Cn1nc(-c2ccc(-c3ccc4occc4c3)c(F)c2)n(C[C@@H]2CCN(C(=O)C3CC3)C2)c1=O` [Example 2, 5-[4-(1-benzofuran-5-yl)-3-fluorophenyl]-4-{[(3R)-1-(cyclopropylcarbonyl)-3-pyrrolidinyl]methyl}-2-methyl-2,4-dihydro-3H-1,2,4-triazol-3-one] had a negative logarithm of the IC50 (pIC50) of 6.80.

As to `O=C(C1CC1)N1CC[C@@H](Cn2c(-c3ccc(-c4ccc5cc[nH]c5c4)c(F)c3)n[nH]c2=O)C1` [Example 4, 4-{[(3R)-1-(cyclopropylcarbonyl)-3-pyrrolidinyl]methyl}-5-[3-fluoro-4-(1H-indol-6-yl)phenyl]-2,4-dihydro-3H-1,2,4-triazol-3-one], the pIC50 was 7.60. Turning to `O=C(C1CC1)N1CC[C@@H](Cn2c(-c3ccc(-c4ccc(F)cc4)cc3Cl)n[nH]c2=O)C1` [Example 20, 5-(3-chloro-4′-fluoro-4-biphenylyl)-4-{[(3R)-1-(cyclopropylcarbonyl)-3-pyrrolidinyl]methyl}-2,4-dihydro-3H-1,2,4-triazol-3-one], the pIC50 was 7.40. Consider `O=C(C1CC1)N1CC[C@@H](Cn2c(-c3ccc(-c4ccc5cc[nH]c5c4)cc3)n[nH]c2=O)C1` [Example 21, 4-{[(3R)-1-(cyclopropylcarbonyl)-3-pyrrolidinyl]methyl}-5-[4-(1H-indol-6-yl)phenyl]-2,4-dihydro-3H-1,2,4-triazol-3-one], for which the pIC50 was 8.40. With `COc1ccc(-c2ccc(-c3nn(C)c(=O)n3C[C@@H]3CCN(C(=O)C4CC4)C3)cc2)c(Cl)c1` [Example 35, 5-[2′-chloro-4′-(methyloxy)-4-biphenylyl]-4-{[(3R)-1-(cyclopropylcarbonyl)-3-pyrrolidinyl]methyl}-2-methyl-2,4-dihydro-3H-1,2,4-triazol-3-one] the figure was 7.10; with `O=C(C1CC1)N1CC[C@@H](Cn2c(-c3ccc(-c4ccc(F)cc4)cc3)nn(Cc3ccccc3)c2=O)C1` [Example 42, 4-{[(3R)-1-(cyclopropylcarbonyl)-3-pyrrolidinyl]methyl}-5-(4′-fluoro-4-biphenylyl)-2-(phenylmethyl)-2,4-dihydro-3H-1,2,4-triazol-3-one], 6.58; with `O=C(C1CC1)N1CC[C@@H](Cn2c(-c3ccc(-c4ccc(Cl)cc4)cc3F)n[nH]c2=O)C1` [Example 47, 5-(4′-chloro-3-fluoro-4-biphenylyl)-4-{[(3R)-1-(cyclopropylcarbonyl)-3-pyrrolidinyl]methyl}-2,4-dihydro-3H-1,2,4-triazol-3-one], 7.80. On to `CN(C)S(=O)(=O)Nc1cccc(-c2ccc(-c3n[nH]c(=O)n3C[C@@H]3CCN(C(=O)C4CC4)C3)cc2)c1` [Example 49, N′-[4′-(4-{[(3R)-1-(cyclopropylcarbonyl)-3-pyrrolidinyl]methyl}-5-oxo-4,5-dihydro-1H-1,2,4-triazol-3-yl)-3-biphenylyl]-N,N-dimethylsulfamide], for which the pIC50 was 7.40. In turn, `O=C(C1CC1)N1CC[C@@H](Cn2c(-c3ccc(-c4ccc(F)nc4)cc3)n[nH]c2=O)C1` [Example 58, 4-{[(3R)-1-(cyclopropylcarbonyl)-3-pyrrolidinyl]methyl}-5-[4-(6-fluoro-3-pyridinyl)phenyl]-2,4-dihydro-3H-1,2,4-triazol-3-one] had a pIC50 of 5.70.

On to `N#Cc1ccc(-c2ccc(-c3n[nH]c(=O)n3C[C@@H]3CCN(C(=O)C4CC4)C3)cc2)cc1` [Example 66, 4′-(4-{[(3R)-1-(cyclopropylcarbonyl)-3-pyrrolidinyl]methyl}-5-oxo-4,5-dihydro-1H-1,2,4-triazol-3-yl)-4-biphenylcarbonitrile], for which the pIC50 was 7.10. In turn, `O=C(C1CC1)N1CC[C@@H](Cn2c(-c3ccc(-c4cccc5ncccc45)cc3)n[nH]c2=O)C1` [Example 71, 4-{[(3R)-1-(cyclopropylcarbonyl)-3-pyrrolidinyl]methyl}-5-[4-(5-quinolinyl)phenyl]-2,4-dihydro-3H-1,2,4-triazol-3-one] showed a pIC50 of 7.70.

For `O=C(C1CC1)N1CC[C@@H](Cn2c(-c3ccc(-c4cn5ccccc5n4)cc3)n[nH]c2=O)C1` [Example 78, 4-{[(3R)-1-(cyclopropylcarbonyl)-3-pyrrolidinyl]methyl}-5-(4-imidazo[1,2-a]pyridin-2-ylphenyl)-2,4-dihydro-3H-1,2,4-triazol-3-one], the negative logarithm of the IC50 (pIC50) is 6.40. The result for `O=C(C1CC1)N1CC[C@@H](Cn2c(-c3ccc(-c4ccn5ccnc5c4)cc3)n[nH]c2=O)C1` [Example 79, 4-{[(3R)-1-(cyclopropylcarbonyl)-3-pyrrolidinyl]methyl}-5-(4-imidazo[1,2-a]pyridin-7-ylphenyl)-2,4-dihydro-3H-1,2,4-triazol-3-one] reads 7.00; that for `CC(C)C(=O)N1CC[C@@H](Cn2c(-c3ccc(-c4ccc5occc5c4)cc3)n[nH]c2=O)C1` [Example 91, 5-[4-(1-benzofuran-5-yl)phenyl]-4-{[(3R)-1-(2-methylpropanoyl)-3-pyrrolidinyl]methyl}-2,4-dihydro-3H-1,2,4-triazol-3-one], 7.80. Regarding `CN(C)C(=O)N1CC[C@@H](Cn2c(-c3ccc(-c4ccc5occc5c4)cc3)n[nH]c2=O)C1` [Example 92, (3R)-3-({3-[4-(1-benzofuran-5-yl)phenyl]-5-oxo-1,5-dihydro-4H-1,2,4-triazol-4-yl}methyl)-N,N-dimethyl-1-pyrrolidinecarboxamide], the pIC50 is 7.60. `CC1(C(=O)N2CC[C@@H](Cn3c(-c4ccc(-c5ccc6occc6c5)cc4)n[nH]c3=O)C2)CC1` [Example 97, 5-[4-(1-benzofuran-5-yl)phenyl]-4-({(3R)-1-[(1-methylcyclopropyl)carbonyl]-3-pyrrolidinyl}methyl)-2,4-dihydro-3H-1,2,4-triazol-3-one] had a negative-log IC50 (pIC50) of 8.40. The compound `NC(=O)Nc1cccc(-c2ccc(-c3n[nH]c(=O)n3C[C@@H]3CCN(C(=O)C4CC4)C3)cc2)c1` [Example 103, N-[4′-(4-{[(3R)-1-(cyclopropylcarbonyl)-3-pyrrolidinyl]methyl}-5-oxo-4,5-dihydro-1H-1,2,4-triazol-3-yl)-3-biphenylyl]urea] gave a pIC50 of 6.50. As to `O=C(C1CC1)N1CC[C@@H](Cn2c(-c3ccc(-c4ccc(Cl)cc4F)cc3)n[nH]c2=O)C1` [Example 105], the negative-log IC50 (pIC50) is 7.30. Regarding `COc1ccc(-c2ccc(-c3n[nH]c(=S)n3C[C@@H]3CCN(C(=O)C4CC4)C3)cc2)c(Cl)c1` [Example 107, 5-[2′-chloro-4′-(methyloxy)-4-biphenylyl]-4-{[(3R)-1-(cyclopropylcarbonyl)-3-pyrrolidinyl]methyl}-2,4-dihydro-3H-1,2,4-triazole-3-thione], the negative-log IC50 (pIC50) was 7.14.
